In the supplement of paper PMC10307832:

Legend:
Assay in all cases: relative viability (nuclei count vs DMSO), 5 days (fraction); higher = more cells survive
[1] = compound: COc1cc(Nc2c(C#N)cnc3cc(OCCCN4CCN(C)CC4)c(OC)cc23)c(Cl)cc1Cl [Bosutinib]
Method in brief: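 MetaXpress counted nuclei in 4× images of lung cancer cell lines that had been fixed, permeabilised and Hoechst-stained in one step. Before that, cells in 1536-well plates were kept overnight at 37 °C, pinned with five √10-spaced library-drug doses on vehicle-anchored plates, and cultured 5 days without medium change. Viability takes treated-well nuclei over vehicle-well nuclei and uses the median across plates. Plates were accepted only at control CV below 25% and at least one doubling.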

[2] = compound: COc1cc(Nc2c(C#N)cnc3cc(OCCCN4CCN(C)CC4)c(OC)cc23)c(Cl)cc1Cl [Bosutinib] + O=C(c1cc(Cc2n[nH]c(=O)c3ccccc23)ccc1F)N1CCN(C(=O)C2CC2)CC1 [Olaparib] (partner 8 µM)
Method in brief: (§1)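 Dosing by pin tool came one day after lung cancer cell lines were seeded in 1536-well plates, using either one drug or a fixed anchor-drug dose plus five library-drug doses (not always all listed) in √10 steps. After 5 days, nuclei were counted on 4× images. Relative viability is treated-well nuclei count divided by vehicle-well nuclei count, and values are medians of duplicate plates.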

[3] = compound: COc1cc(Nc2c(C#N)cnc3cc(OCCCN4CCN(C)CC4)c(OC)cc23)c(Cl)cc1Cl [Bosutinib] + C[C@@H](Oc1cc(-c2cnn(C3CCNCC3)c2)cnc1N)c1c(Cl)ccc(F)c1Cl [Crizotinib] (partner 1 µM)
Method in brief: as §1

[4] = compound: COc1cc(Nc2c(C#N)cnc3cc(OCCCN4CCN(C)CC4)c(OC)cc23)c(Cl)cc1Cl [Bosutinib] + Cc1nc(NC(=O)N2CCC[C@H]2C(N)=O)sc1-c1ccnc(C(C)(C)C(F)(F)F)c1 [Alpelisib] (partner 2 µM)
Method in brief: as §1

[5] = compound: COc1cc(Nc2c(C#N)cnc3cc(OCCCN4CCN(C)CC4)c(OC)cc23)c(Cl)cc1Cl [Bosutinib] + Cc1nc(Nc2ncc(C(=O)Nc3c(C)cccc3Cl)s2)cc(N2CCN(CCO)CC2)n1 [Dasatinib] (partner 0.075 µM)
Method in brief: as §1

Cell Line | relative viability ([1]; 0.01 µM) | relative viability ([1]; 0.03162 µM) | relative viability ([1]; 0.1 µM) | relative viability ([1]; 1 µM) | relative viability ([2]; first compound 0.01 µM) | relative viability ([2]; first compound 0.03162 µM) | relative viability ([2]; first compound 0.1 µM) | relative viability ([2]; first compound 1 µM) | relative viability ([3]; first compound 0.01 µM) | relative viability ([3]; first compound 0.03162 µM) | relative viability ([3]; first compound 0.1 µM) | relative viability ([3]; first compound 1 µM) | relative viability ([4]; first compound 0.01 µM) | relative viability ([4]; first compound 0.03162 µM) | relative viability ([4]; first compound 0.1 µM) | relative viability ([4]; first compound 1 µM) | relative viability ([5]; first compound 0.01 µM) | relative viability ([5]; first compound 0.03162 µM) | relative viability ([5]; first compound 0.1 µM) | relative viability ([5]; first compound 1 µM)
NCI-H23 | 1.13 | 0.997 | 1.04 | 0.872 | 0.326 | 0.328 | 0.348 | 0.278 | 0.636 | 0.464 | 0.512 | 0.458 | 0.674 | 0.666 | 0.519 | 0.546 | 0.927 | 0.937 | 0.679 | 0.76
NCI-H322M | 0.889 | 0.985 | 0.98 | 0.576 | 0.762 | 0.758 | 0.741 | 0.492 | 1.08 | 0.949 | 0.968 | 1 | 0.665 | 0.741 | 0.717 | 0.81 | 0.252 | 0.267 | 0.246 | 0.301
NCI-H358 | 0.964 | 0.913 | 0.961 | 0.685 | 0.566 | 0.579 | 0.572 | 0.366 | 0.516 | 0.512 | 0.505 | 0.647 | 0.862 | 0.817 | 0.771 | 0.585 | 0.2 | 0.201 | 0.206 | 0.366
NCI-H441 | 1.1 | 1.1 | 1.31 | 1.03 | 0.431 | 0.562 | 0.755 | 0.678 | 0.909 | 0.705 | 0.808 | 1.3 | 0.475 | 0.689 | 0.733 | 1.11 | 0.55 | 0.667 | 0.676 | 0.848
NCI-H460 | 1.02 | 0.976 | 0.967 | 0.875 | 0.388 | 0.407 | 0.392 | 0.414 | 0.85 | 0.884 | 0.859 | 0.639 | 0.5 | 0.533 | 0.428 | 0.201 | 0.548 | 0.491 | 0.51 | 0.537
NCI-H520 | 1.02 | 1.11 | 0.953 | 0.775 | 0.358 | 0.379 | 0.352 | 0.298 | 0.806 | 0.74 | 0.635 | 0.676 | 0.96 | 0.786 | 0.968 | 0.66 | 0.226 | 0.232 | 0.199 | 0.22
NCI-H596 | 1.11 | 1.03 | 0.984 | 0.863 | 0.73 | 0.715 | 0.705 | 0.564 | 0.923 | 0.884 | 0.989 | 0.743 | 0.505 | 0.992 | 0.945 | 0.348 | 0.595 | 0.721 | 0.704 | 0.637
NCI-H647 | 1.07 | 0.933 | 0.928 | 0.627 | 0.6 | 0.474 | 0.481 | 0.287 | 1.03 | 1.23 | 1.07 | 0.687 | 1.34 | 1.33 | 1.03 | 0.543 | 0.22 | 0.219 | 0.222 | 0.174
NCI-H650 | 1 | 1.06 | 1.08 | 1.11 | 0.407 | 0.357 | 0.424 | 0.424 | 0.791 | 0.644 | 0.73 | 0.808 | 1.15 | 1.12 | 1.21 | 1.18 | 0.47 | 0.502 | 0.488 | 0.552
NCI-H661 | 0.97 | 1.09 | 1.06 | 0.731 | 0.696 | 0.736 | 0.743 | 0.649 |  | 1.06 | 0.989 | 0.633 | 0.407 | 0.881 | 0.88 | 0.477 | 0.947 | 0.883 | 0.884 | 0.814
NCI-H727 | 0.911 | 0.929 | 0.985 | 0.632 | 0.6 | 0.87 | 0.69 | 0.563 | 0.725 | 0.885 | 0.701 | 0.378 | 0.59 | 0.549 | 0.537 | 0.449 | 0.374 | 0.321 | 0.32 | 0.31
NCI-H838 | 0.975 | 0.942 | 0.953 | 0.693 | 0.84 | 0.752 | 0.684 | 0.406 | 0.845 | 0.79 | 0.737 | 0.354 | 0.961 | 0.879 | 0.864 | 0.432 | 0.325 | 0.302 | 0.334 | 0.332
NCI-H1355 | 0.999 | 1.03 | 1.05 | 0.931 | 0.715 | 0.733 | 0.784 | 0.633 | 1.07 | 1.04 | 1.12 | 0.905 | 0.871 | 0.816 | 0.893 | 0.72 | 0.746 | 0.673 | 0.731 | 0.709
